Values belong to the compound of their own block, whether it stands above or below them. Activity calls are given as the source filed them. The rule behind the calls is not given here.
Assays:
Assay type in all cases: functional, cell-based
[1] = molecular target: T1, Free fatty acid receptor 3 (Homo sapiens) (UniProt O14843); experiment: Antagonist activity at doxycyclin-induced GPR41 (unknown origin) overexpressed in HEK293 cells assessed as increase in forskolin/propionate-induced cAMP level at 1 uM
T1 sequence (whole entry): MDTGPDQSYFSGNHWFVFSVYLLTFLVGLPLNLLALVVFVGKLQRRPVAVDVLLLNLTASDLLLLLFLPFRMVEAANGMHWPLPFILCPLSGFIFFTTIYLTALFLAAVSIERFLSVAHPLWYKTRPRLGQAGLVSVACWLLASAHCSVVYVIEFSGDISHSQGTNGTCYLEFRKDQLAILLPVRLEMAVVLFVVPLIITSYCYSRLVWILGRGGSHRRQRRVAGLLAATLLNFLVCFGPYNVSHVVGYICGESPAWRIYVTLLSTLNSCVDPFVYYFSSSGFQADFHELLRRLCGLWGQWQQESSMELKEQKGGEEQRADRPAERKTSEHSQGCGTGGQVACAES

[2] = molecular target: T1, Free fatty acid receptor 3 (Homo sapiens); experiment: Agonist activity at doxycyclin-induced GPR41 (unknown origin) overexpressed in HEK293 cells assessed as decrease in forskolin-induced cAMP level at 1 uM
[3] = molecular target: T1, Free fatty acid receptor 3 (Homo sapiens); experiment: Agonist activity at GPR41 (unknown origin) overexpressed in HEK293 cells assessed as decrease in forskolin-induced cAMP level
[4] = molecular target: T1, Free fatty acid receptor 3 (Homo sapiens); experiment: Agonist activity at doxycyclin-induced GPR41 (unknown origin) overexpressed in HEK293 cells assessed as decrease in forskolin-induced cAMP level at 30 uM
[5] = molecular target: T2, Free fatty acid receptor 3 (Homo sapiens, UniProt O14843); experiment: Agonist activity at doxycyclin-induced GPR41 (unknown origin) overexpressed in HEK293 cells assessed as decrease in forskolin-induced cAMP level
T2 sequence (O14843 whole entry): T1 sequence (whole entry)

[6] = molecular target: T3, Free fatty acid receptor 2 (Homo sapiens) (UniProt O15552); experiment: Agonist activity at GPR43 (unknown origin) overexpressed in HEK293 cells assessed as decrease in forskolin-induced cAMP level at 1 uM
T3 sequence (whole entry): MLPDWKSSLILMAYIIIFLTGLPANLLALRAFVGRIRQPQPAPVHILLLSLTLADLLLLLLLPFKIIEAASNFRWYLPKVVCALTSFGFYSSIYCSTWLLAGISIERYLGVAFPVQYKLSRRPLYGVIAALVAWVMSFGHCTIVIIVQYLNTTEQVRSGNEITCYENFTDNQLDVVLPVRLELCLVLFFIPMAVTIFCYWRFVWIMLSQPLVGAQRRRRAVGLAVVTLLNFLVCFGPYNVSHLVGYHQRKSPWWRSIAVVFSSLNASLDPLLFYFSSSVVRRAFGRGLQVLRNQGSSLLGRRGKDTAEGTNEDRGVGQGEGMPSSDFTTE

[7] = molecular target: T1, Free fatty acid receptor 3 (Homo sapiens); experiment: Agonist activity at doxycyclin-induced GPR41 (unknown origin) overexpressed in HEK293 cells assessed as decrease in forskolin-induced cAMP level at 10 uM; details: filed as agonist

- Activity [1]: inactive
- Activity ([2]; filed as agonist): Active
Compound: CC1=C(C(=O)Nc2ccccc2C)C(c2ccc(-c3ccc(C(F)(F)F)cc3)o2)C2=C(CCCC2=O)N1 (stereo unspecified)

- Activity [1]: inactive
Compound: CC1=C(C(=O)Nc2ccccc2C)C(c2ccc(-c3cccc(C#N)c3)o2)C2=C(CCCC2=O)N1 (stereo unspecified)

- Activity [1]: inactive
Compound: CC1=C(C(=O)Nc2ccccc2C)C(c2ccc(-c3ccc(F)cc3)o2)C2=C(CCCC2=O)N1 (stereo unspecified)

- Activity ([1]; filed as antagonist): Active
Compound: CC1=C(C(=O)Nc2ccccc2C)C(c2ccc(-c3ccccc3OC(F)(F)F)o2)C2=C(CCCC2=O)N1 (stereo unspecified)

- Activity [1]: inactive
Compound: CC1=C(C(=O)Nc2ccccc2C)C(c2ccc(-c3cc(C(F)(F)F)cc(C(F)(F)F)c3)o2)C2=C(CCCC2=O)N1 (stereo unspecified)

- Activity [1]: inactive
Compound: CC1=C(C(=O)Nc2ccccc2C)C(c2ccc(-c3cccc(C(F)(F)F)c3)o2)C2=C(CCCC2=O)N1 (stereo unspecified)

- Activity [1]: inactive
Compound: CC1=C(C(=O)Nc2ccccc2C)C(c2ccc(-c3ccccc3F)o2)C2=C(CCCC2=O)N1 (stereo unspecified)

- Activity [1]: inactive
Compound: CC1=C(C(=O)Nc2ccccc2C)C(c2ccc(-c3ccc(Cl)cc3)o2)C2=C(CCCC2=O)N1 (stereo unspecified)

- Activity [1]: inactive
Compound: CC1=C(C(=O)Nc2ccccc2C)C(c2ccc(-c3cccc(Cl)c3)o2)C2=C(CCCC2=O)N1 (stereo unspecified)

- Activity [1]: inactive
Compound: CC1=C(C(=O)Nc2ccccc2C)C(c2ccc(-c3ccccc3C(F)(F)F)o2)C2=C(CCCC2=O)N1 (stereo unspecified)

- Activity ([2]; filed as agonist): Active
- EC50 [5]: 3400 nM
- Activity [3]: inactive
- Activity [6]: inactive
Compound: CC1=C(C(=O)Nc2ccccc2C)C(c2ccc(-c3ccc(F)c(F)c3)o2)C2=C(CCCC2=O)N1 (stereo unspecified)

- Activity [2]: inactive
Compound: CC1=C(C(=O)Nc2ccccc2C)C(c2ccc(-c3c(F)cccc3F)o2)C2=C(CCCC2=O)N1 (stereo unspecified)

- Activity [1]: inactive
Compound: CC1=C(C(=O)Nc2ccccc2C)C(c2ccc(-c3cccc(F)c3)o2)C2=C(CCCC2=O)N1 (stereo unspecified)

- Activity [1]: inactive
Compound: COc1cccc(-c2ccc(C3C(C(=O)Nc4ccccc4C)=C(C)NC4=C3C(=O)CCC4)o2)c1 (stereo unspecified)

- Activity [1]: inactive
Compound: CC1=C(C(=O)Nc2ccccc2C)C(c2ccc(-c3ccc(C)cc3)o2)C2=C(CCCC2=O)N1 (stereo unspecified)

- Activity [1]: inactive
- Activity [7]: Active
Compound: CC1=C(C(=O)Nc2ccccc2C)C(c2ccc(-c3ccccc3)o2)C2=C(CCCC2=O)N1 (stereo unspecified)

- Activity ([2]; filed as agonist): Active
Compound: CC1=C(C(=O)Nc2ccccc2C)C(c2ccc(-c3ccc(F)cc3F)o2)C2=C(CCCC2=O)N1 (stereo unspecified)

Continued, compound first:

Compound: CC1=C(C(=O)Nc2cc(Cl)ccc2Cl)C(c2ccc(-c3cc(F)c(F)c(F)c3)o2)C2=C(CCCC2=O)N1 (stereo unspecified)
- Activity [3]: inactive
- Activity [4]: inactive

Compound: CC1=C(C(=O)Nc2cc(Cl)ccc2Cl)C(c2ccc(-c3cc(F)cc(F)c3)o2)C2=C(CCCC2=O)N1 (stereo unspecified)
- Activity [3]: inactive
- Activity [4]: inactive

Compound: CC1=C(C(=O)Nc2ccccc2C)C(c2ccc(-c3cc(F)c(F)c(F)c3)o2)C2=C(CCCC2=O)N1 (stereo unspecified)
- Activity ([2]; filed as agonist): Active
- EC50 [5]: 5890 nM
- Activity [3]: inactive
- Activity [6]: inactive

Compound: CC1=C(C(=O)Nc2ccccc2C)C(c2ccc(-c3ccco3)o2)C2=C(CCCC2=O)N1 (stereo unspecified)
- Activity [1]: inactive

Compound: COc1cc(OC)cc(-c2ccc(C3C(C(=O)Nc4ccccc4C)=C(C)NC4=C3C(=O)CCC4)o2)c1 (stereo unspecified)
- Activity [1]: inactive

Compound: CCC(=O)O
- Activity [1]: inactive
- Activity ([6]; filed as agonist): Active

Compound: CC1=C(C(=O)Nc2cc(Cl)ccc2Cl)C(c2ccc(-c3ccc(F)c(F)c3F)o2)C2=C(CCCC2=O)N1 (stereo unspecified)
- EC50 [5]: 447 nM
- Activity [3]: inactive
- Activity [6]: inactive

Compound: CC1=C(C(=O)Nc2cc(Cl)ccc2Cl)C(c2ccco2)C2=C(CCCC2=O)N1 (stereo unspecified)
- Activity [1]: inactive
- EC50 [5]: 741 nM
- Activity [6]: inactive

Compound: CC1=C(C(=O)Nc2ccccc2C)C(c2ccc(-c3cc(Cl)cc(Cl)c3)o2)C2=C(CCCC2=O)N1 (stereo unspecified)
- Activity [2]: inactive

Compound: CC1=C(C(=O)Nc2ccccc2C)C(c2ccc(-c3ccsc3)o2)C2=C(CCCC2=O)N1 (stereo unspecified)
- Activity [1]: inactive

Compound: CC1=C(C(=O)Nc2ccccc2C)C(c2ccc(-c3ccccc3C#N)o2)C2=C(CCCC2=O)N1 (stereo unspecified)
- Activity [1]: inactive

Compound: CC1=C(C(=O)Nc2ccccc2C)C(c2ccc(-c3ccc(F)c(F)c3F)o2)C2=C(CCCC2=O)N1 (stereo unspecified)
- Activity ([2]; filed as agonist): Active
- EC50 [5]: 5510 nM
- Activity [3]: inactive
- Activity [6]: inactive

Compound: CC1=C(C(=O)Nc2ccccc2C)C(c2ccc(-c3ccccc3Cl)o2)C2=C(CCCC2=O)N1 (stereo unspecified)
- Activity [1]: inactive

Compound: CC1=C(C(=O)Nc2ccccc2C)C(c2ccc(-c3cc(F)cc(F)c3)o2)C2=C(CCCC2=O)N1 (stereo unspecified)
- Activity [1]: inactive
- Activity ([2]; filed as agonist): Active
- EC50 [5]: 679 nM
- Activity [3]: inactive
- Activity [6]: inactive

Compound: CC1=C(C(=O)Nc2cc(Cl)ccc2Cl)C(c2ccc(-c3ccc(F)c(F)c3)o2)C2=C(CCCC2=O)N1 (stereo unspecified)
- Activity [3]: inactive
- Activity [4]: inactive

Compound: CC1=C(C(=O)Nc2ccccc2C)C(c2ccc(-c3cc(C)cc(C)c3)o2)C2=C(CCCC2=O)N1 (stereo unspecified)
- Activity [1]: inactive
